US8784795B2, “Methods for determining personalized treatment compositions for prostate cancer and breast cancer” (Caldera Health Ltd., priority 2012, dated 2014)

Key:
[1] = system: hormone refractory prostate cancer; details: clinical trial; cited from earlier work
[2] = system: blood cells; experiment: Analysis of blood cells treated with Leukine in vivo for changes in perforin levels
Description: […]

[3] = system: prostate cancer; details: patients; cited from earlier work

Row | Compound | response rate [1] [%] | change in perforin levels of blood cells [2] | control of prostate cancer [3]
1 | CC(=O)N1CCN(c2ccc(OCC3COC(Cn4ccnc4)(c4ccc(Cl)cc4Cl)O3)cc2)CC1 (stereo not drawn) [ketoconazole] | 50 |  | 
2 | Leukine®: granulocyte-macrophage colony stimulating factor (GM-CSF; also known as sargramostim; trade name Leukine®) |  | major increases | long-term control of prostate cancer in a substantial number of patients
